# Legend:
# CYP2C9 = target: T1, CYP2C9 (Homo sapiens, UniProt P11712); assay: Time-dependent inhibition of CYP2C9 in human liver microsomes; assay type: in vitro ADME; conditions: for (% Activity NADPH T0)/(% Activity NADPH T30): fold change; for activity at 30 min, 25 µM / activity at 0 min, 25 µM / activity at 30 min, 50 µM / activity at 0 min, 50 µM: pooled human liver microsomes, human liver microsomes; for activity at 30 min, 25 µM / activity at 30 min, 50 µM: after 30 minutes incubation, read-out: % Activity NADPH T30; for activity at 0 min, 25 µM / activity at 0 min, 50 µM: time zero, read-out: % Activity NADPH T0
# T1 construct: Pooled human microsomes and selective CYP probe substrates were used; from tissue; host or cells: pooled human liver microsomes
# Method: An assessment of the time-dependent Inhibitory Potential of the test compounds against Principal Human Cytochrome P450 Isozymes using Human Liver Microsomes was also carried out using standard methods (Grimm et al, Drug Metab. Dispos., July; 37(7):1355-70. doi: 10.1124/dmd.109.026716, 2009). Pooled human microsomes and selective CYP probe substrates were used for in vitro assessment of test compounds at 25 and 50 μM as time-dependent inhibitors of […] human hepatic cytochrome P450 isozymes (CYP1A2, 2B6, 2C9, 2C19, 2D6, and 3A4). LC-MS/MS was used to quantify metabolite formation. The inhibition of each P450 enzyme in human liver microsomes was measured as the percentage decrease in the activity of marker metabolite formation as measured by LC-MS/MS compared to non-inhibited controls (=100% activity) at time zero and after 30 minutes incubation. The occurrence of any time dependent inhibition was then expressed as the fold change in enzyme activity at time zero relative to the activity after 30 minutes incubation.
# [1] = Rat single dose pharmacokinetics; assay type: in vivo, Sprague Dawley rats; conditions: male, Sprague Dawley, plasma, IV; for Vd: read-out: Vss
# Method: Male Sprague Dawley rats were obtained from Zhejiang Vital River Laboratory Animal Technology Co., Ltd. The animals in IV group had free access to water and food. The animals in PO group were fasted overnight before dosing and provided with food 2 hours post dosing. The IV dose solution was prepared in 10% DMA/50% PG/40% HPβCD solution (40% w/v aqueous HPβCD) at a concentration of 1 mg/mL. The oral dosing suspension was prepared by suspending Test Article in 0.5% HPMC/0.1% Tween 80 in water at a concentration 0.2 mg/mL. Concentrations of IV and PO doses were measured at the end of the study. Pharmacokinetic parameters were calculated using the nominal dose values if the measured values were within 20% of the nominal values. Three rats were dosed IV via a bolus injection via caudal vein. Three rats per dose group were dosed by oral gavage. Blood samples were collected from the jugular vein cannula at predose, 5 (IV only), 15, 30 minutes, and 1, 2, 4, 6, and 24 hours post-dose. Blood volumes were replaced with an equal amount of sterile 0.9% saline. Blood samples were centrifuged and the collected plasma was stored at −80° C. for subsequent analysis. Plasma samples were analyzed for Test Article concentrations using a LC/MS/MS method. Briefly, a 50 μL aliquot of each plasma sample was mixed with 100 μL of acetonitrile that contained an internal standard. The mixture was vortexed and centrifuged. Ten (10) […] of the resulting solution was injected onto a reverse-phase C18 column and the resultant peaks detected on a LC/MS/MS equipped with a turbo ionspray ionization source. Sample concentrations below the limit of quantification (BLQ) were treated as zero for pharmacokinetic calculations. Pharmacokinetic parameters were estimated from individual animals using noncompartmental analysis of the concentration-time data (Phoenix WinNonLin software, version 64; Pharsight, Mountain View, CA). The elimination rate constant (k) was calculated as the absolute value of the slope of the linear regression of logarithm (log) of the concentration versus time for the last three data points of the concentration-time profiles. Apparent elimination half-life (t1/2) values were calculated as ln(2)/k. Area under the concentration-time curve (AUC) values were estimated using linear trapezoidal method. AUCt values were calculated from the dosing time to the last measurable concentration. AUC∞ values were calculated as the sum of the corresponding AUCt and the ratio of the last detectable concentration divided by k (AUCt-∞). Plasma clearance (CL) was calculated from Dose/AUC∞. Mean resident time (MRT) was estimated by moment analysis. Volume of distribution at steady state (Vss) was calculated from MRT∞×CL. Maximum concentration (Cmax) and time to reach Cmax (tmax) were recorded as observed. Bioavailability was calculated from the ratio of dose normalized AUC∞,po of individual rats/mean dAUC∞,iv×100% where dAUC was the dose normalized AUC value. Compounds tested were prepared in accordance with the synthetic procedures described herein.
# [2] = Dog cassette dosing pharmacokinetics; assay type: in vivo, beagle dogs; conditions: male, beagle, plasma, IV; for Vd: read-out: Vss; for half-life: read-out: t½ (converted)
# Method: Non-naïve male beagle dogs (8 months to 3 years of age, body weight 8-14 kg) sourced from Jiangsu Johnsen Bioresource CO. and/or Beijing Rixinkeji CO., LTD and/or Beijing Marshall Biotechnology CO., LTD were used in this study. All animals for IV administration had free access to food and water. The IV dose solution was prepared in 10% DMA/50% PG/40% HPβCD solution (40% w/v aqueous HPβCD) at a concentration of 0.2 mg/mL. Concentrations of IV dose was measured at the end of the study. PK parameters were calculated using the nominal dose values if the measured values were within 20% of the nominal values. Blood samples were collected by venipuncture of peripheral veins except the dosing vein at pre-dose, 5 15, 30 min, 1, 2, 4, 6, 8 and 24 h post-dose. Blood samples were centrifuged and resultant plasma was frozen for bioanalysis. Plasma samples were stored at −80° C. before analysis. Plasma samples were analyzed for compound concentrations using the LC/MS/MS method. Briefly, a 50 μL aliquot of each plasma sample was mixed with 100 μL of acetonitrile that contained an internal standard. The mixture was vortexed and centrifuged. Ten (10) μL of the resulting solution was injected onto a reverse-phase C18 column and the resultant peaks detected on a LC/MS/MS equipped with a turbo ionspray ionization source. Sample concentrations below the limit of quantification (BLQ) were treated as zero for PK calculations. PK parameters were estimated from individual animals using noncompartmental analysis of the concentration-time data (Phoenix WinNonLin software, version 64; Pharsight, Mountain View, CA). The elimination rate constant (k) was calculated as the absolute value of the slope of the linear regression of logarithm (log) of the concentration versus time for the last three data points of the concentration-time profiles. Apparent elimination half-life (t1/2) values were calculated as ln(2)/k. Area under the concentration-time curve (AUC) values were estimated using linear trapezoidal method. AUCt values were calculated from the dosing time to the last measurable concentration. AUC∞ values were calculated as the sum of the corresponding AUCt and the ratio of the last detectable concentration divided by k. Plasma clearance (CL) was calculated from Dose/AUC∞. Mean resident time extrapolated to infinity (MRT∞) was estimated by moment analysis. Vss was calculated from MRT∞×CL. Maximum concentration (Cmax) and time to reach Cmax (tmax) were recorded as observed. As this was a cross-over study, bioavailability was calculated dAUC∞,po/dAUC∞,iv×100% where dAUC was the dose normalized AUC value from the same animal given IV and PO dose. Data for compounds tested are provided in Table G. Compounds tested were prepared in accordance with the synthetic procedures described herein.
# T1 sequence (P11712 whole entry): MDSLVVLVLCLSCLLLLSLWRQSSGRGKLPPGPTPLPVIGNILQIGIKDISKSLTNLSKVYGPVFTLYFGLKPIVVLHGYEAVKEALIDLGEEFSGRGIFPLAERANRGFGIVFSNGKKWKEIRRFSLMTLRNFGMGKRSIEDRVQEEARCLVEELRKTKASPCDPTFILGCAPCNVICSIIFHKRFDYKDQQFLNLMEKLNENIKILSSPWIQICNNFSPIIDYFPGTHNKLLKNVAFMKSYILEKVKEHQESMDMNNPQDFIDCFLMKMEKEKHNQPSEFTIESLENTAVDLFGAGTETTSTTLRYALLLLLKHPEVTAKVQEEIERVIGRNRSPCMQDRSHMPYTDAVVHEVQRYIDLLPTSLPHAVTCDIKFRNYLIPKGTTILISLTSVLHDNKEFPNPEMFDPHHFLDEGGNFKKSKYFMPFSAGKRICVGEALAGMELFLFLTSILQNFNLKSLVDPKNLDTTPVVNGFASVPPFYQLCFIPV
SMILES,"(% Activity NADPH T0)/(% Activity NADPH T30) (CYP2C9; CYP2C9, 25 μM)","(% Activity NADPH T0)/(% Activity NADPH T30) (CYP2C9; CYP2C9, 50 μM)",clearance [1],half-life [1],Vd [1],"activity at 30 min, 25 µM (CYP2C9; CYP2C9, 25 μM)","activity at 0 min, 25 µM (CYP2C9; CYP2C9, 25 μM)","activity at 30 min, 50 µM (CYP2C9; CYP2C9, 50 μM)","activity at 0 min, 50 µM (CYP2C9; CYP2C9, 50 μM)",clearance [2],Vd [2],half-life [2],"(% Activity NADPH T0)/(% Activity NADPH T30) (CYP2C9; CYP2C9, 50 μM, listed as compound 7)"
"C[C@H]1CC[C@H](N2CC(=O)N(Cc3ccc(F)c(F)c3)C3(CN(C=O)C3)C2=O)CC1 [Compound 4, 5-(3,4-difluorobenzyl)-8-((1r,4r)-4-methylcyclohexyl)-6,9-dioxo-2,5,8-triazaspiro[3.5]nonane-2-carbaldehyde]",1.0,0.9,,,,,,,,,,,
"CC(C)N1CC(=O)N(Cc2ccc(Cl)c(F)c2)C2(CN(c3cccnn3)C2)C1=O [Compound 8, 5-(4-chloro-3-fluorobenzyl)-8-isopropyl-2-(pyridazin-3-yl)-2,5,8-triazaspiro[3.5]nonane-6,9-dione]",1.0,1.0,79.9 mL/min/kg,1.2 h,5.22 L/kg,107%,104%,109%,112%,15.6 mL/min/kg,6.26 L/kg,5.66 h,
"CC(C)N1CC(=O)N(Cc2ccc(C(F)(F)F)cc2)C2(CN(c3cccnn3)C2)C1=O [Compound 13, 8-isopropyl-2-(pyridazin-3-yl)-5-(4-(trifluoromethyl)benzyl)-2,5,8-triazaspiro[3.5]nonane-6,9-dione]",0.9,1.0,38.9 mL/min/kg,0.95 h,2.17 L/kg,114%,107%,109%,111%,11.5 mL/min/kg,3.72 L/kg,4.16 h,

# Next, values leading:
"(% Activity NADPH T0)/(% Activity NADPH T30) (CYP2C9; CYP2C9, 25 μM)","(% Activity NADPH T0)/(% Activity NADPH T30) (CYP2C9; CYP2C9, 50 μM)",clearance [1],half-life [1],Vd [1],"activity at 30 min, 25 µM (CYP2C9; CYP2C9, 25 μM)","activity at 0 min, 25 µM (CYP2C9; CYP2C9, 25 μM)","activity at 30 min, 50 µM (CYP2C9; CYP2C9, 50 μM)","activity at 0 min, 50 µM (CYP2C9; CYP2C9, 50 μM)",clearance [2],Vd [2],half-life [2],"(% Activity NADPH T0)/(% Activity NADPH T30) (CYP2C9; CYP2C9, 50 μM, listed as compound 7)",SMILES
0.8,1.0,71.1 mL/min/kg,3.04 h,13.7 L/kg,79%,62%,64%,62%,9.26 mL/min/kg,6.17 L/kg,9.86 h,,"C[C@H]1CC[C@H](N2CC(=O)N(Cc3ccc(F)c(F)c3)C3(CN(C(N)=O)C3)C2=O)CC1 [Compound 5, 5-(3,4-difluorobenzyl)-8-((1r,4r)-4-methylcyclohexyl)-6,9-dioxo-2,5,8-triazaspiro[3.5]nonane-2-carboxamide]"
1.2,1.0,76.6 mL/min/kg,2 h,10.1 L/kg,41%,48%,33%,34%,9.08 mL/min/kg,3.98 L/kg,7.11 h,,"Cc1cc(CN2C(=O)CN([C@H]3CC[C@H](C)CC3)C(=O)C23CN(C(N)=O)C3)ccc1F [Compound 6, 5-(4-fluoro-3-methylbenzyl)-8-((1r,4r)-4-methylcyclohexyl)-6,9-dioxo-2,5,8-triazaspiro[3.5]nonane-2-carboxamide]"
1.3,1.4,61.9 mL/min/kg,2.1 h,12.6 L/kg,75%,94%,61%,87%,9.22 mL/min/kg,6.33 L/kg,10.9 h,1.3,"C[C@H]1CC[C@H](N2CC(=O)N(Cc3ccc(F)c(Cl)c3)C3(CN(C(N)=O)C3)C2=O)CC1 [Compound 7, 5-(3-chloro-4-fluorobenzyl)-8-((1r,4r)-4-methylcyclohexyl)-6,9-dioxo-2,5,8-triazaspiro[3.5]nonane-2-carboxamide]"
0.9,1.2,63.6 mL/min/kg,2.15 h,9.48 L/kg,47%,44%,27%,32%,7.07 mL/min/kg,4.29 L/kg,9.08 h,,"C[C@H]1CC[C@H](N2CC(=O)N(Cc3ccc(Cl)cc3)C3(CN(C(N)=O)C3)C2=O)CC1 [Compound 18, 5-(4-chlorobenzyl)-8-((1r,4r)-4-methylcyclohexyl)-6,9-dioxo-2,5,8-triazaspiro[3.5]nonane-2-carboxamide]"
